Results published in patent US20240368135A1 (VERTEX PHARMACEUTICALS INCORPORATED, priority 2021, published 2024).

Target: human NaV 1.8 (Homo sapiens, UniProt Q9Y5Y9)
Test: E-VIPR assay detecting and measuring NaV inhibition properties
Format: cell-based
Settings: HEK cells expressing truncated human NaV 1.8; no human serum; read-out: IC50 in the E-VIPR Assay
Summary of the method: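 Membrane potential was followed by coumarin/oxonol FRET during electrical field stimulation of matrigel-seeded HEK cells carrying truncated human NaV1.8 plus KIR2.1. Dosing used 11 points, 3-fold steps, top 300 nM final, 0.625% DMSO, with or without 25% human serum.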

Chain of human NaV 1.8 (Q9Y5Y9 126-399 limits assumed): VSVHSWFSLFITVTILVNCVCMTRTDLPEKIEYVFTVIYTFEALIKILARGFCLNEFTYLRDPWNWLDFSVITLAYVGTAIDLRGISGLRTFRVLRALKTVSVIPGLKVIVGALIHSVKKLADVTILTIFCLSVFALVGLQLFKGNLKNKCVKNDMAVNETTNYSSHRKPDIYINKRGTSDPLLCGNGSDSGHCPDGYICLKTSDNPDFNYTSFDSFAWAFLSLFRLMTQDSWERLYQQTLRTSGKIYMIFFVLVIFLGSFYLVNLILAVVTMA
Chain of human NaV 1.8 (Q9Y5Y9 660-890 limits assumed): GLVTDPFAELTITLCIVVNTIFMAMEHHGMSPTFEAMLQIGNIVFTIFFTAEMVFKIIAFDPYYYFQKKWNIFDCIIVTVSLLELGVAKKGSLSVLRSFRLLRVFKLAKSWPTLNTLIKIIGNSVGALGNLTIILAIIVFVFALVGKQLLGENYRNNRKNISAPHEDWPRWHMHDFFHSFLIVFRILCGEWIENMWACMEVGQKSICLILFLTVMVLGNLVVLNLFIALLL
Chain of human NaV 1.8 (Q9Y5Y9 1148-1722 limits assumed): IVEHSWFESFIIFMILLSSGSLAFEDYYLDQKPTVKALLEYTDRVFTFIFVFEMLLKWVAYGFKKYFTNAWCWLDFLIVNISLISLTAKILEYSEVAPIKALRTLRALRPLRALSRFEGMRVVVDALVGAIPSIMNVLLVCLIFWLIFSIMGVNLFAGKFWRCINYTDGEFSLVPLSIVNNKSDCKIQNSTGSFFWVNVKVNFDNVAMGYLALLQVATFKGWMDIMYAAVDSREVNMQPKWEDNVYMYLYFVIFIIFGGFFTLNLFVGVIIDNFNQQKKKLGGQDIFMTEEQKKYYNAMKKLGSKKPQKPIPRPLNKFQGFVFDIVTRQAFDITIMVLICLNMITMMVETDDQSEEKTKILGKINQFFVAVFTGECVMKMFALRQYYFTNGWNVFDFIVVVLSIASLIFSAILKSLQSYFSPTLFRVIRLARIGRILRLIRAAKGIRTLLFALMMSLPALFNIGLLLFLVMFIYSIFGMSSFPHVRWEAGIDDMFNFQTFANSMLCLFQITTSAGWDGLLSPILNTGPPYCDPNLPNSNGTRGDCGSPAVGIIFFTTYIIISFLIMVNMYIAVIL

Q: With `Cc1nn(C(F)F)cc1NC(=O)[C@@H]1O[C@@](C)(C(F)(F)F)[C@@H](C)[C@H]1c1ccc(F)c(F)c1OCC(=O)O` [Compound 603, 2-(6-((2R,3S,4S,5R)-2-((1-(difluoromethyl)-3-methyl-1H-pyrazol-4-yl)carbamoyl)-4,5-dimethyl-5-(trifluoromethyl)tetrahydrofuran-3-yl)-2,3-difluorophenoxy)acetic acid] as the compound, how does the IC50 read?
A: The IC50 was no less than 1000 nM.

Q: For `COc1c([C@H]2[C@H](C(=O)Nc3ccnc(N4CCN(C)CC4)c3)O[C@@](C)(C(F)(F)F)[C@H]2C)ccc(F)c1F` [Compound 312, (2R,3S,4S,5R)-3-(3,4-difluoro-2-methoxyphenyl)-4,5-dimethyl-N-(2-(4-methylpiperazin-1-yl)pyridin-4-yl)-5-(trifluoromethyl)-tetrahydrofuran-2-carboxamide], which IC50 is on record?
A: Its IC50 is 10 to 100 nM.

Q: For `COc1c([C@H]2[C@H](C(=O)Nc3ccnc(OC4CCOCC4)c3)O[C@@](C)(C(F)(F)F)[C@H]2C)ccc(F)c1F` [Compound 195, (2R,3S,4S,5R)-3-(3,4-difluoro-2-methoxyphenyl)-4,5-dimethyl-N-(2-((tetrahydro-2H-pyran-4-yl)oxy)pyridin-4-yl)-5-(trifluoromethyl)tetrahydrofuran-2-carboxamide], which IC50 is on record?
A: Its IC50 is 10 to 100 nM.

Q: Which IC50 does the source give for `[2H]C([2H])([2H])Oc1c([C@H]2[C@H](C(=O)Nc3ccnc(N4CCN(C)CC4=O)c3)O[C@@](C)(C(F)(F)F)[C@H]2C)ccc(F)c1F` [Compound 518, (2R,3S,4S,5R)-3-(3,4-difluoro-2-(methoxy-d3)phenyl)-4,5-dimethyl-N-(2-(4-methyl-2-oxopiperazin-1-yl)pyridin-4-yl)-5-(trifluoromethyl)tetrahydrofuran-2-carboxamide] here?
A: Its IC50 is less than 10 nM.

Q: `CNC(=O)COc1c([C@H]2[C@H](C(=O)Nc3cn(C(F)F)nc3C)O[C@@](C)(C(F)(F)F)[C@H]2C)ccc(F)c1F` [Compound 607, (2R,3S,4S,5R)-3-(3,4-difluoro-2-(2-(methylamino)-2-oxoethoxy)phenyl)-N-(1-(difluoromethyl)-3-methyl-1H-pyrazol-4-yl)-4,5-dimethyl-5-(trifluoromethyl)tetrahydrofuran-2-carboxamide] was tested. Which IC50 did it give?
A: The IC50 was 10 to 100 nM.

Q: `C[C@H]1[C@@H](c2ccc(F)c(F)c2OCCO)[C@H](C(=O)Nc2cc(C3CC3)n(C)n2)O[C@@]1(C)C(F)(F)F` [Compound 546, (2R,3S,4S,5R)-N-(5-cyclopropyl-1-methyl-1H-pyrazol-3-yl)-3-(3,4-difluoro-2-(2-hydroxyethoxy)phenyl)-4,5-dimethyl-5-(trifluoromethyl)tetrahydrofuran-2-carboxamide] was tested. Which IC50 did it give?
A: Its IC50 is no less than 1000 nM.

Q: With `COc1c([C@@H]2[C@@H](C(=O)Nc3ccc(C(N)=O)nc3)O[C@](C)(C(F)(F)F)[C@@H]2C)ccc(F)c1C(F)F` (stereo in doubt) [Compound 169, rel-5-((2S,3R,4R,5S)-3-(3-(difluoromethyl)-4-fluoro-2-methoxyphenyl)-4,5-dimethyl-5-(trifluoromethyl)tetrahydrofuran-2-carboxamido)picolinamide] as the compound, how does the IC50 read?
A: Its IC50 is no less than 1000 nM.

Q: `COc1c([C@H]2[C@H](C(=O)Nc3ccnc(S(=O)(=O)N(C)C)c3)O[C@@](C)(C(F)(F)F)[C@H]2C)ccc(F)c1F` (stereo in doubt) [Compound 449, rel-(2R,3S,4S,5R)-3-(3,4-difluoro-2-methoxyphenyl)-N-(2-(N,N-dimethylsulfamoyl)pyridin-4-yl)-4,5-dimethyl-5-(trifluoromethyl)tetrahydrofuran-2-carboxamide] was tested. Which IC50 did it give?
A: Its IC50 is less than 10 nM.

Q: For `COc1c(C2C(C(=O)Nc3ccnc(C(O)CF)c3)OC(C)(C(F)(F)F)C2C)ccc(F)c1F` (single isomer, unassigned) [Compound 252, rel-(2R*,3S*,4S*,5R*)-3-(3,4-difluoro-2-methoxyphenyl)-N-(2-(2-fluoro-1-hydroxyethyl)pyridin-4-y1)-4,5-dimethyl-5-(trifluoromethyl)tetrahydrofuran-2-carboxamide], which IC50 is on record?
A: The IC50 was less than 10 nM.
